Results from patent publication US20220213092A1, “BICYCLIC PYRAZOLE BRUTON'S TYROSINE KINASE INHIBITORS” (AbbVie Inc., priority 2020, published 2022).
Like-named read-outs stand apart in the source and are kept apart here.

Assays:
[1] = target: MAP2K1 (Homo sapiens, UniProt Q02750); assay: Other kinase MSA: MAP2K1; assay type: biochemical; settings: 25 μM ATP, ERKtide substrate; pre-activation of ERK 30 min, detection after 60 minutes; read-out: IC50, Enzyme MAP2K1
Procedure: Kinase activity, unless otherwise indicated, was measured in vitro using an electrophoretic mobility shift assay (MSA). The phosphorylation of a peptide substrate by BTK and other kinases was measured. The kinase reactions were assembled in a total volume of 25 μL per well in 384 well plates. The following was added to each well: compound buffer (or control); enzyme buffer; and substrate buffer, as further described below. […]
Enzyme and compound/inhibitor were optionally pre-incubated. […] The kinase activity for the kinases in Table 3 were measured at 3 hours incubation time, except that in the case of MAP2K1 and MAP2K2 assay, pre-activation of ERK was done for 30 min with 6 μM of ATP, and then the detection of activated ERK in the presence of compounds was done after 60 minutes of incubation.
The terminated reactions were analyzed using a 12 channel LABCHIP® 3000 microfluidic detection instrument (available from Caliper Life Sciences, Waltham, Mass.). […] As substrate and product peptides were separated, two peaks of fluorescence were observed. Change in the relative fluorescence intensity of the substrate and product peaks was the parameter measured, reflecting enzyme activity. […] Capillary electrophoregrams (RDA acquisition files) were analyzed using HTS Well Analyzer software (available from Caliper Life Sciences, Waltham, Mass.). […]

[2] = test system: human hepatocyte suspension; assay: Chemical inhibition in human hepatocytes (intrinsic clearance with and without CYP inhibitors); assay type: in vitro ADME
Procedure: (§1) The contribution of CYPs to the metabolism of Compound 6 was evaluated in human hepatocyte suspension (about 500,000 cells/mL) (hepatocytes from BioIVT, Inc.) treated with or without azamulin (CYP3A4 mechanism-based inhibitor) or 1-aminobenzotriazole (ABT)/tienilic acid (a pan-CYP inhibitor regimen) for 30 minutes. The hepatocyte suspension with inhibitors was preincubated with 2× azamulin or 1-ABT/tienilic acid in Williams' media E and then added to 2× Compound 6 in media to give a final concentrations of 2.5 μM azamulin or 0.5 mM 1-ABT/1.5 μM tienilic acid and 0.5 μM Compound 6, respectively.
(§2) Final incubation volume was 25 μL. Samples were incubated in 384-well plates at 37° C. with 5% CO2 and gentle shaking. At each time point (0, 15, 30, 60, 120, and 240 minutes), samples in the incubation plates were quenched with acetonitrile:MeOH (95:5, v:v) with carbutamide as internal standard (quench ration 3:1). The samples were centrifuged, and the supernatant was analyzed using LC-MS/MS.
(§3) Quantitation of the substrate depletion in recombinant CYPs and FMO3 phenotyping, chemical inhibition in hepatocytes, and enzyme kinetics assays were analyzed by monitoring substrate depletion using LC-MS/MS.
(§4) The intrinsic clearance of Compound 6 in rCYP and hepatocytes was determined by integrating the parent peak on the chromatograms, and the extent of substrate depletion measured by comparing parent peak area loss over time. The elimination rate constant (k, transformation of % parent remaining versus incubation time: y=a*e^−(kt). Where y is the % parent remaining, t (min) is the time point within the incubation, and a is the % parent remaining at time 0 minute. From this, intrinsic clearance in rCYP (CLint, CYP, expressed in units of μL/min/pmol CYP) and in hepatocytes (CLint, hep, expressed in units of μL/min/million cells were derived using the equations below:
(§5) Clint,hep=k*1000/Cell Concentration (million cells/mL)
(§6) The fraction of metabolism inhibited by the chemical treatment in human hepatocytes was calculated using the equation:
(§7) fm,CYP=[Clint,hep(no inhibitor)−Clint,hep(PanCYP or azamulin])/[Clint, hep(no inhibitor)]

[3] = as above; assay type: in vitro ADME; settings: human, human hepatocyte suspension
Procedure: as §1, §2, §3, §4, §5, §6, §7

Chain of MAP2K1 (Q02750 whole entry, species assumed): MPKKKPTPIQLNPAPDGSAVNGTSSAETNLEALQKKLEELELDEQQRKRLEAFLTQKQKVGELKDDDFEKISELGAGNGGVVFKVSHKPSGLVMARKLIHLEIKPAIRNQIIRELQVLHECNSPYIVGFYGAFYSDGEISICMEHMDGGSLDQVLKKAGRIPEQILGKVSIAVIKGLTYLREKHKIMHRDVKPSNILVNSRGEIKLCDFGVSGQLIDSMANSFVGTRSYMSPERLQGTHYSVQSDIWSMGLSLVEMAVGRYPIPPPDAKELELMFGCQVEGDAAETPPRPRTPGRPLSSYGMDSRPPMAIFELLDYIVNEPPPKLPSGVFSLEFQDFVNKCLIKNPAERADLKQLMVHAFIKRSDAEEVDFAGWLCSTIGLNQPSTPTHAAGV

| IC50 [1] [µM] | % Total CYP Contribution In Vitro ([2]; calculated from the PAN CYP inhibitor regimen of 1-ABT and tienilic acid, human hepatocyte suspensions) [%] | CYP contribution to the hepatic metabolism ([2]; following incubation with a pan-CYP inhibitor cocktail in human hepatocytes) | % Inhibition by azamulin ([2]; fraction of clearance in human hepatocytes inhibited by azamulin) [%] | non-CYP hepatic enzymes contribution to the remaining clearance ([2]; human hepatocytes) | hepatocyte CLint at 0.5 μM ([3]; 0.5 μM Compound 6, 0.5 mM 1-ABT/1.5 μM tienilic acid, read-out: CLint, PAN CYP) [µL/min/1e6 cells] | hepatocyte CLint at 0.5 μM ([3]; 0.5 μM Compound 6, no inhibitor, read-out: CLint, no inhibitor) [µL/min/1e6 cells] | hepatocyte CLint at 0.5 μM ([3]; with 2.5 μM azamulin (CYP3A4 mechanism-based inhibitor), 0.5 μM Compound 6, 2.5 μM azamulin (CYP3A4 inhibitor), read-out: CLint, Azamulin) [µL/min/1e6 cells] | Compound |
| --- | --- | --- | --- | --- | --- | --- | --- | --- |
| 0.0413 |  |  |  |  |  |  |  | C=CC(=O)N1CCC([C@@H]2CCNc3c(C(N)=O)c(-c4ccc(Oc5ccccc5)cc4)nn32)CC1 [Compound A, reference compound] |
|  | 38.3 | approximately 30% | 31.4 | about 70% | 8.23 | 13.3 | 9.15 | C=CC(=O)N1CCN([C@@H]2CCNc3c2nn(-c2ccc(Oc4ccccc4)cc2)c3C(N)=O)CC1 [Example 6, (7R)-2-(4-phenoxyphenyl)-7-[4-(prop-2-enoyl)piperazin-1-yl]-4,5,6,7-tetrahydro-2H-pyrazolo[4,3-b]pyridine-3-carboxamide] |
